Like-named read-outs stand apart in the source and are kept apart here.
Tests used:
[1] = tested on: PHA-stimulated splenocytes; test: Proliferative response of PHA-stimulated splenocytes (MTT assay); assay type: cell-based; conditions: PHA 5 μg/ml, 72 hr; compounds at 5 μM (method says 10 μM); ratio of O.D. versus vehicle control
Description: Immunomodulatory effects of the synthesized curcumin conjugates on the proliferative response of PHA-stimulated splenocytes were evaluated. The effect of curcumin and its amino acid conjugates on splenocyte viability and proliferation in response to a T cell miotgen (Phytohaemagglutinin; PHA) was evaluated using the MTT assay. Freshly prepared splenocytes (1×10^6 cells/200 μl/well) were cultured in a 96-well U-bottom microtiter plate (Nunc) in complete medium. Cells were treated with tested compounds at a final concentration of 10 μM, vehicle (DMSO) or left untreated in triplicate then incubated at 37° C. and 5% CO2. When testing the immunoregulatory effects of the compounds on splenocyte stimulation, PHA (5 μg/ml) was added to the culture media to induce T cell proliferation. The proliferative response to PHA+vehicle and vehicle alone served as controls. After 72 hr, media were removed after pelleting the cells by centrifugation and MTT salt solution (5 mg/ml) was added into each well then incubated at 37° C. for 4 h. Afterwards, formazan crystals were dissolved by adding 150 μl 10% sodium dodecyl sulfate (SDS). Absorbance was measured with a spectrophotometer at 570 nm and reference wavelength of 690 nm.
Splenocyte stimulation index was determined as the ratio of O.D. values in tested compounds versus vehicle control cultures.

[2] = tested on: lipopolysaccharide-stimulated peritoneal macrophages; test: Production of nitric oxide by lipopolysaccharide-stimulated peritoneal macrophages (Greiss reagent); assay type: cell-based; design: Potency (%): % inhibition of nitric oxide production relative to lipopolysaccharide-stimulated macrophages: concentration or dose not given beside the values; conditions: LPS-stimulated peritoneal macrophages; for Nitric oxide (nitrite) concentration, μM (average ± SD): 24 h, nitrite by Greiss reagent
Description: The effects of the synthesized curcumin conjugates on the production of nitric oxide (μM) by lipopolysaccharide-stimulated peritoneal macrophages were evaluated.
Two milliliters of macrophage cells were seeded in 12-well tissue culture plates in nitrite-free medium supplemented with 0.1% bovine serum albumin and incubated at 37° C. LPS±epinephrine, norepinephrine, or dopamine at […] concentrations was added to some wells. The concentrations of LPS used ranged from 0.5 to 10 ng/ml. After incubation for 24 h, supernatants were collected for measuring nitric oxide (NO) by spectrophotometry. The production of NO was determined from the accumulation of nitrite (NO2), the metabolic end product of NO metabolism, in the medium using the Greiss reagent. About equal volumes (100 μl) of sample and Greiss reagent (1:1 mixture of 1% sulfanilamide in 5% phosphoric acid, and 0.1% a-naphthylamine in distilled water) were mixed and incubated at room temperature for 15 min, and absorbance was measured at 532 nm on a spectrophotometer.

[3] = tested on: Salmonella typhi ATCC19430; test: Antimicrobial MIC, agar dilution; assay type: cell-based; conditions: Salmonella enterica, read-out: Minimum inhibitory concentration (MIC)
[4] = tested on: HCT116 (colon) carcinoma cell line; test: Anti-tumor properties, MTT; assay type: cell-based; conditions: Homo sapiens, HCT-116; HCT116, 100 μM, 72 h; read-out: Percentage growth of tumor cell lines treated with the tested compounds (±SD)
Description: (§1) Anti-tumor properties of curcumin conjugates were evaluated. The synthesized curcumin-amino acid conjugates and curcumin itself were screened for their antitumor properties against human tumor cell lines utilizing HepG2 (hepatocellular), MCF7 (breast), and HCT116 (colon) carcinoma cell lines by the standard mitochondrial dependent reduction of yellow MTT [3-(4,5-dimethylthiazol-2-yl)-2,5-diphenyl-tetrazolium bromide] to purple formazan technique. Cancer cells were obtained from the Egyptian Company for Production of Vaccines, Sera and Drugs (VACSERA), Cairo, Egypt. Media, chemicals and supplies for the bio-assay were obtained from Biowest, Gibco and Lonza Companies. Cells were suspended in RPMI-1640 medium for HepG2, DMEMF12 for MCF-7, and DMEM for HCT116 in addition to 1% antibiotic-antimycotic mixture (10 […] potassium penicillin, 10 […] streptomycin sulfate and […] amphotericin B), 10% fetal bovine serum and 1% L-glutamine at 37° C., under 5% CO2 and 95% humidity. Cells were seeded at a concentration of 10×10^3 cells per well in fresh complete growth medium in 96-well tissue culture microtiter plates for 24 h. Media was aspirated, 180 μL fresh medium (without serum) were added and cells were incubated with different concentrations of sample to give a final concentration of 100 μM. 0.5% DMSO was used as a negative control and doxorubicin was used as a positive control (standard reference). Triplicate wells were prepared for each individual tested compound/dose. After 72 h of incubation, the medium was aspirated, 40 μL MTT salt (2.5 mg ml^1) were added to each well and incubated for an additional 4 h at 37° C. To stop the reaction and dissolve the formed crystals, 200 μL of 10% sodium dodecyl sulfate (SDS) in deionized water were added to each well and incubated overnight at 37° C. The absorbance was then measured at 595 nm with a reference wavelength of 620 nm. Data were collected as mean values for experiments performed in triplicates for each compound which had been measured by MTT assay.
(§2) The percentage of cell survival was calculated according to equation (4): […]
(§3) The IC50 was determined using Graph-Pad PRISM version-5 software. Statistical calculations for determination of the mean and standard deviation (SD) values were determined by SPSS 16 software.

[5] = tested on: HepG2 (hepatocellular) carcinoma cell line; test: Anti-tumor properties, MTT; assay type: cell-based; conditions: Homo sapiens; HepG2, 100 μM, 72 h; read-out: Percentage growth of tumor cell lines treated with the tested compounds (±SD)
Description: as §1, §2, §3

[6] = tested on: MCF7 (breast) carcinoma cell line; test: Anti-tumor properties, MTT; assay type: cell-based; conditions: Homo sapiens; MCF7, 100 μM, 72 h; read-out: Percentage growth of tumor cell lines treated with the tested compounds (±SD)
Description: as §1, §2, §3

[7] = tested on: MCF-7 cells; test: Effect on doxorubicin induced cytotoxicity (MTT); conditions: for Percentage of viable cells MCF-7 (average ± SD): 10 μM DOX in combination with 100 μM curcumin derivative, 48 hr; for viability at 100 µM: Homo sapiens, MCF7, 48 h, read-out: Percentage of viable cells MCF-7 (average ± SD)
Description: The effects of curcumin conjugates on doxorubicin induced cytotoxicity were evaluated. In order to further examine whether curcumin derivatives can enhance conventional chemotherapeutic agents, MCF-7 cells were treated with 100 μM curcumin derivatives alone or in combination with 10 μM doxorubicin (DOX) for 48 hr. Control cultures received only medium, vehicle (DMSO), or vehicle+DOX. The percentage of viable cells was determined by MTT assay according to equation (5): […]

[8] = tested on: Staphylococcus aureus ATCC25923; test: Antimicrobial MIC, agar dilution
[9] = tested on: Streptococcus pyogenes ATCC19615; test: Antimicrobial MIC, agar dilution
[10] = tested on: Pseudomonas aeruginosa ATCC27853; test: Antimicrobial MIC, agar dilution
[11] = tested on: Candida albicans (local isolate); test: Antimicrobial MIC, agar dilution; conditions: Candida albicans, read-out: Minimum inhibitory concentration (MIC)
[12] = ATCC25923, 18 h, read-out: Minimum inhibitory concentration (MIC)
[13] = ATCC25923, read-out: Minimum inhibitory concentration (MIC)
[14] = ATCC19615, 18 h, read-out: Minimum inhibitory concentration (MIC)
[15] = ATCC19615, read-out: Minimum inhibitory concentration (MIC)
[16] = ATCC27853, 18 h, read-out: Minimum inhibitory concentration (MIC)
[17] = ATCC27853, read-out: Minimum inhibitory concentration (MIC)

COc1cc(/C=C/C(=O)CC(=O)/C=C/c2ccc(OC(=O)[C@H](Cc3c[nH]c4ccccc34)NC(=O)OCc3ccccc3)c(OC)c2)ccc1OC(=O)[C@H](Cc1c[nH]c2ccccc12)NC(=O)OCc1ccccc1 [Cbz-Trp-Cur, ((1E,6E)-3,5-dioxohepta-1,6-diene-1,7-diyl)bis(2-methoxy-4,1-phenylene) (2S,2′S)-bis(2-(((benzyloxy)carbonyl)amino)-3-(1H-indol-3-yl)propanoate)]
Stimulation Index (average ± SD) [1]: 2.60 ± 0.12 | Potency (%): % inhibition of nitric oxide production relative to lipopolysaccharide-stimulated macrophages [2]: 11.08% | Nitric oxide (nitrite) concentration, μM (average ± SD) [2]: 24.28 ± 0.82 µM | MIC ([3]; 18 h): 0.125 µg/mL | MIC [3]: 0.124 µM | activity at 100 µM [4]: 100 ± 7% | activity at 100 µM [5]: 97.6 ± 6.8% | activity at 100 µM [6]: 79.5 ± 0.6% | Percentage of viable cells MCF-7 (average ± SD) [7]: 45.17 ± 4.04 | viability at 100 µM [7]: 98.2 ± 2.96% | MIC [8, 12]: 0.125 µg/mL | MIC [8, 13]: 0.124 µM | MIC [9, 14]: 0.5 µg/mL | MIC [9, 15]: 0.496 µM | MIC [10, 16]: 0.25 µg/mL | MIC [10, 17]: 0.248 µM | MIC ([11]; 18 h): 1 µg/mL | MIC [11]: 0.991 µM

COc1cc(/C=C/C(=O)CC(=O)/C=C/c2ccc(OC(=O)[C@@H](NC(=O)OCc3ccccc3)C(C)C)c(OC)c2)ccc1OC(=O)[C@@H](NC(=O)OCc1ccccc1)C(C)C [Cbz-Val-Cur, ((1E,6E)-3,5-dioxohepta-1,6-diene-1,7-diyl)bis(2-methoxy-4,1-phenylene) (2S,2′S)-bis(2-(((benzyloxy)carbonyl)amino)-3-methylbutanoate)]
Stimulation Index (average ± SD) [1]: 2.87 ± 0.11 | Potency (%): % inhibition of nitric oxide production relative to lipopolysaccharide-stimulated macrophages [2]: 5.68% | Nitric oxide (nitrite) concentration, μM (average ± SD) [2]: 25.76 ± 0.99 µM | MIC ([3]; 18 h): 0.125 µg/mL | MIC [3]: 0.15 µM | activity at 100 µM [4]: 112 ± 7.9% | activity at 100 µM [5]: 92.4 ± 2.8% | activity at 100 µM [6]: 85% | Percentage of viable cells MCF-7 (average ± SD) [7]: 49.68 ± 1.46 | viability at 100 µM [7]: 99.2 ± 2.15% | MIC [8, 12]: 0.125 µg/mL | MIC [8, 13]: 0.15 µM | MIC [9, 14]: 0.5 µg/mL | MIC [9, 15]: 0.599 µM | MIC [10, 16]: 0.25 µg/mL | MIC [10, 17]: 0.299 µM | MIC ([11]; 18 h): 1 µg/mL | MIC [11]: 1.2 µM

COc1cc(/C=C/C(=O)CC(=O)/C=C/c2ccc(OC(=O)[C@H](C)NC(=O)OCC3c4ccccc4-c4ccccc43)c(OC)c2)ccc1OC(=O)[C@H](C)NC(=O)OCC1c2ccccc2-c2ccccc21 [Fmoc-Ala-Cur, ((1E,6E)-3,5-dioxohepta-1,6-diene-1,7-diyl)bis(2-methoxy-4,1-phenylene) (2S,2′S)-bis(2-((((9H-fluoren-9-yl)methoxy)carbonyl)amino)propanoate)]
Stimulation Index (average ± SD) [1]: 2.22 ± 0.41 | Potency (%): % inhibition of nitric oxide production relative to lipopolysaccharide-stimulated macrophages [2]: 20.22% | Nitric oxide (nitrite) concentration, μM (average ± SD) [2]: 21.79 ± 2.71 µM | MIC ([3]; 18 h): 0.25 µg/mL | MIC [3]: 0.262 µM | activity at 100 µM [4]: 96.9 ± 3.2% | activity at 100 µM [5]: 78.3 ± 5.1% | activity at 100 µM [6]: 73.6 ± 2.2% | viability at 100 µM [7]: 99.2 ± 3.65% | MIC [8, 12]: 0.5 µg/mL | MIC [8, 13]: 0.524 µM | MIC [9, 14]: 0.5 µg/mL | MIC [9, 15]: 0.524 µM | MIC [10, 16]: 0.25 µg/mL | MIC [10, 17]: 0.262 µM | MIC ([11]; 18 h): 1 µg/mL | MIC [11]: 1.05 µM

COc1cc(/C=C/C(=O)CC(=O)/C=C/c2ccc(OC(=O)[C@H](CC(C)C)NC(=O)OCC3c4ccccc4-c4ccccc43)c(OC)c2)ccc1OC(=O)[C@H](CC(C)C)NC(=O)OCC1c2ccccc2-c2ccccc21 [Fmoc-Leu-Cur, ((1E,6E)-3,5-dioxohepta-1,6-diene-1,7-diyl)bis(2-methoxy-4,1-phenylene) (2S,2′S)-bis(2-((((9H-fluoren-9-yl)methoxy)carbonyl)amino)-4-methylpentanoate)]
Stimulation Index (average ± SD) [1]: 2.16 ± 0.13 | Potency (%): % inhibition of nitric oxide production relative to lipopolysaccharide-stimulated macrophages [2]: 21.88% | Nitric oxide (nitrite) concentration, μM (average ± SD) [2]: 21.34 ± 0.86 µM | MIC ([3]; 18 h): 0.5 µg/mL | MIC [3]: 0.481 µM | activity at 100 µM [4]: 99.5 ± 3.8% | activity at 100 µM [5]: 103 ± 2.6% | activity at 100 µM [6]: 83 ± 1.1% | Percentage of viable cells MCF-7 (average ± SD) [7]: 41.16 ± 2.33 | viability at 100 µM [7]: 98.2 ± 2.98% | MIC [8, 12]: 0.25 µg/mL | MIC [8, 13]: 0.241 µM | MIC [9, 14]: 0.5 µg/mL | MIC [9, 15]: 0.481 µM | MIC [10, 16]: 0.25 µg/mL | MIC [10, 17]: 0.241 µM | MIC ([11]; 18 h): 0.5 µg/mL | MIC [11]: 0.481 µM

COc1cc(/C=C/C(=O)CC(=O)/C=C/c2ccc(OC(=O)[C@H](Cc3ccccc3)NC(=O)OCC3c4ccccc4-c4ccccc43)c(OC)c2)ccc1OC(=O)[C@H](Cc1ccccc1)NC(=O)OCC1c2ccccc2-c2ccccc21 [Fmoc-Phe-Cur, ((1E,6E)-3,5-dioxohepta-1,6-diene-1,7-diyl)bis(2-methoxy-4,1-phenylene) (2S,2′S)-bis(2-((((9H-fluoren-9-yl)methoxy)carbonyl)amino)-3-phenylpropanoate)]
Stimulation Index (average ± SD) [1]: 1.78 ± 0.10 | Potency (%): % inhibition of nitric oxide production relative to lipopolysaccharide-stimulated macrophages [2]: 31.01% | Nitric oxide (nitrite) concentration, μM (average ± SD) [2]: 18.84 ± 0.69 µM | MIC ([3]; 18 h): 0.25 µg/mL | MIC [3]: 0.226 µM | activity at 100 µM [4]: 110 ± 7.3% | activity at 100 µM [5]: 108 ± 3.6% | activity at 100 µM [6]: 84.7 ± 3.6% | Percentage of viable cells MCF-7 (average ± SD) [7]: 42.49 ± 2.71 | viability at 100 µM [7]: 98.3 ± 2.21% | MIC [8, 12]: 0.25 µg/mL | MIC [8, 13]: 0.226 µM | MIC [9, 14]: 0.125 µg/mL | MIC [9, 15]: 0.113 µM | MIC [10, 16]: 2 µg/mL | MIC [10, 17]: 1.81 µM | MIC ([11]; 18 h): 0.5 µg/mL | MIC [11]: 0.452 µM

Reference: patent US10660967B2, “Curcumin conjugates and methods of use thereof” (priority 2016, dated 2020)
